In patent US6635636B1, “Substituted 6-benzyl-4-oxopyrimidines, process for their preparation and pharmaceutical compositions containing them” (Idenix Pharmaceuticals, Inc., priority 1998, dated 2003):
Like-named read-outs stand apart in the source and are kept apart here.

Key:
HIV-1 (IIIB strain) = assay: Anti-HIV-1 assay: inhibition of virus-induced cytopathicity in acutely infected MT-4 cells (MTT); type: cell-based; conditions: mean of at least two separate experiments
Procedure: (§1) Compounds. Compounds were solubilized in DMSO at 200 mM and then diluted into culture medium.
(§2) Cells and viruses. MT-4, C8166, H9/IIIB and CEM cells were grown at 37° C. in a 5% CO2 atmosphere in RPMI 1640 medium, supplemented with 10% fetal calf serum (FCS), 100 UI/mL penicillin and 100 μg/mL streptomycin. Cell cultures were checked periodically for the absence of mycoplasma contamination with a MycoTect Kit (Gibco). Human immunodeficiency virus type-1 (HIV-1, IIIB strain) was obtained from supernatants of persistently infected H9/IIIB cells.
(§3) Anti-HIV assays. Activity of the compounds against HIV-1 and HIV-2 multiplication in acutely infected cells was based on the inhibition of virus-induced cytopathicity in MT-4 and C8166 cells, respectively. Briefly, 50 μL of culture medium containing 1×10^4 cells were added to each well of flat-bottom microtiter trays containing 50 μl of culture medium with or without various concentrations of the test compounds. Then 20 μL of an HIV suspension containing 100 CCID50 were added. After a 4-day incubation at 37° C., the number of viable cells was determined by the 3-(4,5-dimethylthiazol-[…])-2,5-diphenyltetrazolium bromide (MTT) method. Cytotoxicity of the compounds was evaluated in parallel with their antiviral activity. It was based on the viability of mock-infected cells, as monitored by the MTT method.

mock-infected MT-4 cells = assay: Cytotoxicity: viability of mock-infected cells by the MTT method; type: cell-based
Procedure: as §1, §2, §3

[1] = MT-4 cells, HIV-1, MTT method, read-out: EC50 (compound dose required to achieve 50% protection of MT-4 cells from HIV-1 induced cytopathogenicity)
[2] = HIV-1 infected MT-4 cells, MTT method, read-out: EC50: compound dose required to achieve 50% protection of MT-4 cells from HIV-1 induced cytopathogenicity

Row | SMILES | EC50 (HIV-1 (IIIB strain); [1]) | CC50 (mock-infected MT-4 cells) | EC50 (HIV-1 (IIIB strain); [2]) | melting point
1 | CC1CCC(C)C(Oc2nc(Cc3ccccc3)cc(=O)[nH]2)C1 (mixture of isomers) [MC 507] | 3.5 µM | 143 µM |  | 
2 | CC1CCC(Oc2nc(Cc3ccccc3)cc(=O)[nH]2)CC1C (mixture of isomers) [MC 508] | 6.4 µM | 58 µM |  | 
3 | CC1CC(C)CC(Oc2nc(Cc3ccccc3)cc(=O)[nH]2)C1 (mixture of isomers) [MC 512] | 30 µM | > 200 µM |  | 
4 | Cc1c(Cc2ccccc2)nc(OC2CC(C)CCC2C)[nH]c1=O (mixture of isomers) [MC 531] | 3.5 µM | 138 µM |  | 
5 | CCC(C)Nc1nc(C(C)c2c(F)cccc2F)cc(=O)[nH]1 (mixture of isomers) [MC 1192] |  | 86 µM | 0.04 µM | 
6 | CCC(C)Sc1nc(C(c2ccccc2)c2ccccc2)cc(=O)[nH]1 (racemic) [MC 796] | > 61 µM | 61 µM |  | 
7 | CCC(C)Sc1nc(Cc2ccccc2C)cc(=O)[nH]1 (racemic) [MC 806] | 1.8 µM | > 200 µM |  | 
8 | CCC(C)Sc1nc(Cc2ccc(C)cc2)cc(=O)[nH]1 (racemic) [MC 809] | 0.6 µM | 200 µM |  | 
9 | CCC(C)Sc1nc(Cc2ccccc2[N+](=O)[O-])cc(=O)[nH]1 (racemic) [MC 817] | 0.25 µM | > 200 µM |  | 
10 | CCC(C)Sc1nc(Cc2ccc(Cl)cc2)cc(=O)[nH]1 (racemic) [MC 859] | 5 µM | 120 µM |  | 
11 | CCC(C)Sc1nc(Cc2ccc([N+](=O)[O-])cc2)cc(=O)[nH]1 (racemic) [MC 863] | 1.5 µM | 151 µM |  | 
12 | CCC(C)Sc1nc(Cc2ccccc2C(F)(F)F)cc(=O)[nH]1 (racemic) [MC 868] | 32 µM | > 200 µM |  | 
13 | CCC(C)Sc1nc(Cc2cccc(F)c2)cc(=O)[nH]1 (racemic) [MC 884] | 0.7 µM | > 200 µM |  | 
14 | CCC(C)Sc1nc(Cc2ccc(F)cc2)cc(=O)[nH]1 (racemic) [MC 889] | 8.7 µM | > 200 µM |  | 
15 | CC(C)Sc1nc(C(C)c2ccccc2)cc(=O)[nH]1 (racemic) [MC 890] | 0.9 µM | > 200 µM |  | 
16 | CC(c1ccccc1)c1cc(=O)[nH]c(SC2CCCC2)n1 (racemic) [MC 892] | 0.6 µM | 159 µM |  | 
17 | CCC(C)Sc1nc(Cc2cccc([N+](=O)[O-])c2)cc(=O)[nH]1 (racemic) [MC 897] | 0.4 µM | 157 µM |  | 
18 | CCC(c1ccccc1)c1cc(=O)[nH]c(SC(C)C)n1 (racemic) [MC 899] | 0.8 µM | 200 µM |  | 

Row | SMILES | EC50 (HIV-1 (IIIB strain); [1]) | CC50 (mock-infected MT-4 cells) | EC50 (HIV-1 (IIIB strain); [2]) | melting point
19 | CCC(c1ccccc1)c1cc(=O)[nH]c(SC2CCCC2)n1 (racemic) [MC 900] | 1 µM | > 200 µM |  | 
20 | CCC(c1ccccc1)c1cc(=O)[nH]c(SC2CCCCC2)n1 (racemic) [MC 903] | 1.3 µM | > 200 µM |  | 
21 | CCC(C)Sc1nc(Cc2ccc(C(F)(F)F)cc2)cc(=O)[nH]1 (racemic) [MC 959] | 25 µM | 200 µM |  | 
22 | CCC(C)Oc1nc(Cc2c(F)cccc2F)cc(=O)[nH]1 (racemic) [MC 1114] | 25 µM | 130 µM |  | 
23 | Cc1c(C(C)c2c(F)cccc2F)nc(SC(C)C)[nH]c1=O (racemic) [MC 1137] |  | 200 µM | 0.007 µM | 
24 | Cc1c(C(C)c2c(F)cccc2F)nc(SCC(C)C)[nH]c1=O (racemic) [MC 1153] |  | > 200 µM | 0.01 µM | 
25 | CNc1nc(C(C)c2c(F)cccc2F)c(C)c(=O)[nH]1 (racemic) [MC 1170] |  | 200 µM | 0.03 µM | 
26 | Cc1c(C(C)c2c(F)cccc2F)nc(SC2CCCCC2)[nH]c1=O (racemic) [MC 1174] |  | > 200 µM | 0.018 µM | 
27 | CCCCSc1nc(C(C)c2c(F)cccc2F)c(C)c(=O)[nH]1 (racemic) [MC 1175] |  | 112 µM | 0.008 µM | 
28 | CNc1nc(C(C)c2c(F)cccc2F)cc(=O)[nH]1 (racemic) [MC 1178] | 0.11 µM | 106 µM |  | 
29 | CC(c1cc(=O)[nH]c(NC2CCCCC2)n1)c1c(F)cccc1F (racemic) [MC 1180] |  | 56 µM | 0.02 µM | 
30 | Cc1c(C(C)c2c(F)cccc2F)nc(NC2CCCCC2)[nH]c1=O (racemic) [MC 1181] |  | 58 µM | 0.03 µM | 
31 | CCCCNc1nc(C(C)c2c(F)cccc2F)c(C)c(=O)[nH]1 (racemic) [MC 1187] |  | 83 µM | 0.01 µM | 
32 | CCCCNc1nc(C(C)c2c(F)cccc2F)cc(=O)[nH]1 (racemic) [MC 1189] |  | 52 µM | 0.03 µM | 
33 | CC(C)Nc1nc(C(C)c2c(F)cccc2F)cc(=O)[nH]1 (racemic) [MC 1191] |  | 115 µM | 0.03 µM | 
34 | Cc1c(Cc2c(F)cccc2F)nc(NC2CCCC2)[nH]c1=O [MC1050, 2-Cyclopentylamino-6-(2,6-difluorophenylmethyl)-3,4-dihydro-5-methylpyrimidin-4-one] |  |  |  | 115 to 117 °C
35 | Cc1c([C@@H](C)c2c(F)cccc2F)nc(SC2CCCC2)[nH]c1=O [MC 1047] | 0.009 µM | > 200 µM |  | 
